Results as given in paper PMC5218480 (PLoS ONE, 2017).

Test system: MV-4-11 cells
Test: Gene expression microarray analysis (Affymetrix PrimeView) and GSEA
Assay type: cell-based, human
Set-up: RFU PODN (11730768_x_at) / Fold change /veh PODN (11730768_x_at) / RFU LINC00158 (11744669_a_at) / Fold change /veh LINC00158 (11744669_a_at) / RFU DUSP10 (11751237_a_at) / Fold change /veh DUSP10 (11751237_a_at) / RFU ID3 (11757404_x_at) / Fold change /veh ID3 (11757404_x_at) / RFU PLEKHG5 (11737974_s_at) / Fold change /veh PLEKHG5 (11737974_s_at) / RFU LRRC4B (11730491_at) / Fold change /veh LRRC4B (11730491_at) / RFU GIMAP4 (11747438_a_at) / Fold change /veh GIMAP4 (11747438_a_at) / RFU KRT8 (11758183_x_at) / Fold change /veh KRT8 (11758183_x_at) / RFU CNN1 (11734310_a_at) / Fold change /veh CNN1 (11734310_a_at) / RFU VPS37D (11726825_at) / Fold change /veh VPS37D (11726825_at) / RFU C10orf10 (11716522_x_at) / Fold change /veh C10orf10 (11716522_x_at) / RFU KIR2DL2 /// KIR2DL4 /// KIR2DL5A /// KIR2DL5B /// KIR2DS1 /// KIR2DS2 /// KIR2DS3 /// KIR2DS4 /// KIR3DL3 /// KIR3DL3 /// KIR3DS1 (11738374_at) / Fold change /veh KIR2DL2 /// KIR2DL4 /// KIR2DL5A /// KIR2DL5B /// KIR2DS1 /// KIR2DS2 /// KIR2DS3 /// KIR2DS4 /// KIR3DL3 /// KIR3DL3 /// KIR3DS1 (11738374_at) / RFU C1QL1 (11718748_at) / Fold change /veh C1QL1 (11718748_at) / RFU TMPRSS4 (11747572_a_at) / Fold change /veh TMPRSS4 (11747572_a_at) / RFU HAMP (11756126_x_at) / Fold change /veh HAMP (11756126_x_at) / RFU RNFT2 (11725882_a_at) / Fold change /veh RNFT2 (11725882_a_at) / RFU NR4A2 (11747474_a_at) / Fold change /veh NR4A2 (11747474_a_at) / RFU ABCC12 (11746883_a_at) / Fold change /veh ABCC12 (11746883_a_at) / RFU TMEM136 (11760407_x_at) / Fold change /veh TMEM136 (11760407_x_at) / RFU CLDN22 /// WWC2 (11732394_at) / Fold change /veh CLDN22 /// WWC2 (11732394_at) / RFU HLA-DPB1 (11760878_x_at) / Fold change /veh HLA-DPB1 (11760878_x_at) / RFU SPINT1 (11716480_a_at) / Fold change /veh SPINT1 (11716480_a_at) / RFU GAP43 (11754022_s_at) / Fold change /veh GAP43 (11754022_s_at) / RFU A4GNT (11735810_at) / Fold change /veh A4GNT (11735810_at) / RFU PRB3 (11715151_x_at) / Fold change /veh PRB3 (11715151_x_at) / RFU TUBB4B (11761932_at) / Fold change /veh TUBB4B (11761932_at) / RFU CAPN14 (11732068_a_at) / Fold change /veh CAPN14 (11732068_a_at) / RFU TMCC2 (11721928_a_at) / Fold change /veh TMCC2 (11721928_a_at) / RFU IRGQ (11745062_a_at) / Fold change /veh IRGQ (11745062_a_at) / RFU FAM174B (11720279_a_at) / Fold change /veh FAM174B (11720279_a_at) / RFU TMPRSS4 (11748680_a_at) / Fold change /veh TMPRSS4 (11748680_a_at) / RFU FAM212B (11763350_a_at) / Fold change /veh FAM212B (11763350_a_at) / RFU PLEKHG5 (11743358_a_at) / Fold change /veh PLEKHG5 (11743358_a_at) / RFU ZSCAN30 (11745921_a_at) / Fold change /veh ZSCAN30 (11745921_a_at) / RFU CMKLR1 (11741424_a_at) / Fold change /veh CMKLR1 (11741424_a_at) / RFU LOC101060620 /// MAPK8IP1 (11723275_at) / Fold change /veh LOC101060620 /// MAPK8IP1 (11723275_at) / RFU SPTSSB (11747773_x_at) / Fold change /veh SPTSSB (11747773_x_at) / RFU PRSS12 (11739890_at) / Fold change /veh PRSS12 (11739890_at) / RFU BIN1 (11741810_x_at) / Fold change /veh BIN1 (11741810_x_at) / RFU WNT11 (11732464_a_at) / Fold change /veh WNT11 (11732464_a_at) / RFU C10orf10 (11716521_a_at) / Fold change /veh C10orf10 (11716521_a_at) / RFU C5orf56 (11738089_at) / Fold change /veh C5orf56 (11738089_at) / RFU CYB561 (11721691_x_at) / Fold change /veh CYB561 (11721691_x_at) / RFU ANKRD19P (11752326_a_at) / Fold change /veh ANKRD19P (11752326_a_at) / RFU OR2T12 /// OR2T33 /// OR2T8 (11738714_s_at) / Fold change /veh OR2T12 /// OR2T33 /// OR2T8 (11738714_s_at) / RFU VCAN (11748164_a_at) / Fold change /veh VCAN (11748164_a_at) / RFU JSRP1 (11732532_at) / Fold change /veh JSRP1 (11732532_at) / RFU KRTAP10-11 (11738290_x_at) / Fold change /veh KRTAP10-11 (11738290_x_at) / RFU MYO3A (11730013_a_at) / Fold change /veh MYO3A (11730013_a_at) / RFU EBF3 (11725865_a_at) / Fold change /veh EBF3 (11725865_a_at) / RFU CAMK2N1 (11719241_x_at) / Fold change /veh CAMK2N1 (11719241_x_at) / RFU C5orf56 (11738088_a_at) / Fold change /veh C5orf56 (11738088_a_at) / RFU OLFML3 (11715873_a_at) / Fold change /veh OLFML3 (11715873_a_at) / RFU LOC100653217 /// NTM (11731650_a_at) / Fold change /veh LOC100653217 /// NTM (11731650_a_at) / RFU MAPK11 (11762145_a_at) / Fold change /veh MAPK11 (11762145_a_at) / RFU FIZ1 (11724087_x_at) / Fold change /veh FIZ1 (11724087_x_at) / RFU OASL (11726364_x_at) / Fold change /veh OASL (11726364_x_at) / RFU SOX15 (11748057_x_at) / Fold change /veh SOX15 (11748057_x_at) / RFU CD79A (11719716_a_at) / Fold change /veh CD79A (11719716_a_at) / RFU HIST1H1D (11736915_at) / Fold change /veh HIST1H1D (11736915_at) / RFU CASKIN2 (11723855_a_at) / Fold change /veh CASKIN2 (11723855_a_at) / RFU LOC730098 (11760151_x_at) / Fold change /veh LOC730098 (11760151_x_at) / RFU OR4N2 (11742367_at) / Fold change /veh OR4N2 (11742367_at) / RFU PRRT2 (11749266_a_at) / Fold change /veh PRRT2 (11749266_a_at) / RFU SNX32 (11753110_a_at) / Fold change /veh SNX32 (11753110_a_at) / RFU CDHR5 (11726645_a_at) / Fold change /veh CDHR5 (11726645_a_at) / RFU RCAN1 (11760418_a_at) / Fold change /veh RCAN1 (11760418_a_at) / RFU FAM167A (11723789_a_at) / Fold change /veh FAM167A (11723789_a_at) / RFU FAM26E (11764081_at) / Fold change /veh FAM26E (11764081_at) / RFU ISYNA1 (11749810_s_at) / Fold change /veh ISYNA1 (11749810_s_at) / RFU ACY1 (11761880_at) / Fold change /veh ACY1 (11761880_at) / RFU 11764098_at / Fold change /veh 11764098_at / RFU SAMD14 (11745864_x_at) / Fold change /veh SAMD14 (11745864_x_at) / RFU NPB (11741838_a_at) / Fold change /veh NPB (11741838_a_at) / RFU TMPRSS6 (11731388_a_at) / Fold change /veh TMPRSS6 (11731388_a_at) / RFU KRTAP10-2 (11738614_at) / Fold change /veh KRTAP10-2 (11738614_at) / RFU ARHGAP8 /// PRR5-ARHGAP8 (11727945_x_at) / Fold change /veh ARHGAP8 /// PRR5-ARHGAP8 (11727945_x_at) / RFU KRTAP5-7 /// NADSYN1 (11734609_at) / Fold change /veh KRTAP5-7 /// NADSYN1 (11734609_at) / RFU RASL12 (11751679_a_at) / Fold change /veh RASL12 (11751679_a_at) / RFU CDKN2B (11736163_a_at) / Fold change /veh CDKN2B (11736163_a_at) / RFU PRF1 (11729649_at) / Fold change /veh PRF1 (11729649_at) / RFU, ZNF638 /// ZNF638-IT1 / Fold change vs veh, ZNF638 /// ZNF638-IT1 / RFU, PANK3 / Fold change vs veh, PANK3 / RFU, SH3YL1 / Fold change vs veh, SH3YL1 / RFU, ZEB2 / Fold change vs veh, ZEB2 / RFU, NRIP1 / Fold change vs veh, NRIP1 / RFU, PTTG1IP / Fold change vs veh, PTTG1IP / RFU, CAPN2 / Fold change vs veh, CAPN2 / RFU, MED14 / Fold change vs veh, MED14 / RFU, SNORA58 / Fold change vs veh, SNORA58 / RFU, C1orf63 / Fold change vs veh, C1orf63 / RFU, LRRFIP1 / Fold change vs veh, LRRFIP1 / RFU, NDUFAF7 / Fold change vs veh, NDUFAF7 / RFU, SLC12A2 / Fold change vs veh, SLC12A2 / RFU, IBTK / Fold change vs veh, IBTK / RFU, ESF1 / Fold change vs veh, ESF1 / Fold change vs veh, TMEM50B / RFU, TAOK1 / Fold change vs veh, TAOK1 / RFU, ACBD3 / Fold change vs veh, ACBD3 / RFU, TMA16 / Fold change vs veh, TMA16 / RFU, RWDD3 / Fold change vs veh, RWDD3 / RFU, BCAT1 / Fold change vs veh, BCAT1 / RFU, EDEM3 / Fold change vs veh, EDEM3 / RFU, TMEM33 / Fold change vs veh, TMEM33 / RFU, WDR75 / Fold change vs veh, WDR75 / RFU, AHCTF1 / Fold change vs veh, AHCTF1 / RFU, TFRC / Fold change vs veh, TFRC / RFU, ZDHHC17 / Fold change vs veh, ZDHHC17 / RFU, NOM1 / Fold change vs veh, NOM1 / RFU, ARL8B / Fold change vs veh, ARL8B / RFU, ZBTB11 / Fold change vs veh, ZBTB11 / RFU, TAMM41 / Fold change vs veh, TAMM41 / RFU, KIAA1704 /// LOC100996395 / Fold change vs veh, KIAA1704 /// LOC100996395 / RFU, ING1 / Fold change vs veh, ING1 / RFU, TRMT61B / Fold change vs veh, TRMT61B / RFU, FUBP3 / Fold change vs veh, FUBP3 / RFU, TP53 / Fold change vs veh, TP53 / RFU, TNKS2 / Fold change vs veh, TNKS2 / RFU, ZFP14 / Fold change vs veh, ZFP14 / RFU, ACTR2 / Fold change vs veh, ACTR2 / RFU, PPP3R1 / Fold change vs veh, PPP3R1 / RFU, PIK3R1 / Fold change vs veh, PIK3R1 / RFU, HNRNPA1 / Fold change vs veh, HNRNPA1 / RFU, RNF170 / Fold change vs veh, RNF170 / RFU, ZNF28 / Fold change vs veh, ZNF28 / RFU, RNGTT / Fold change vs veh, RNGTT / RFU, OGT / Fold change vs veh, OGT / RFU, BRD1 / Fold change vs veh, BRD1 / RFU, MARS / Fold change vs veh, MARS / RFU, ZNF655 / Fold change vs veh, ZNF655 / RFU, FAHD1 / Fold change vs veh, FAHD1 / RFU, BDP1 / Fold change vs veh, BDP1 / RFU, LRRCC1 / Fold change vs veh, LRRCC1 / RFU, ARID1A / Fold change vs veh, ARID1A / RFU, ZNF146 / Fold change vs veh, ZNF146 / RFU, ZNF330 / Fold change vs veh, ZNF330 / RFU, GPN3 / Fold change vs veh, GPN3 / RFU, C9orf123 / Fold change vs veh, C9orf123 / RFU, N4BP2L2 / Fold change vs veh, N4BP2L2 / RFU, ARFIP1 / Fold change vs veh, ARFIP1 / RFU, FAM179B / Fold change vs veh, FAM179B / RFU, BCL10 / Fold change vs veh, BCL10 / RFU, UHRF1BP1L / Fold change vs veh, UHRF1BP1L / RFU, BET1 / Fold change vs veh, BET1 / RFU, CNOT2 / Fold change vs veh, CNOT2 / RFU, ZNF268 / Fold change vs veh, ZNF268 / Fold change vs veh, ZNF507 / RFU, DGCR2 / Fold change vs veh, DGCR2 / RFU, WDSUB1 / Fold change vs veh, WDSUB1 / Fold change vs veh, HSP90B1 /// MIR3652 / RFU, ADSS / Fold change vs veh, ADSS / RFU, GK / Fold change vs veh, GK / RFU, ZNF148 / Fold change vs veh, ZNF148 / RFU, TAF9 / Fold change vs veh, TAF9 / RFU, SLC1A5 / Fold change vs veh, SLC1A5 / RFU, SLMO2 / Fold change vs veh, SLMO2 / RFU, ABCC4 / Fold change vs veh, ABCC4 / RFU, LOC101060439 /// RAP1B / Fold change vs veh, LOC101060439 /// RAP1B / RFU, RFX7 / Fold change vs veh, RFX7 / RFU, GTPBP10 / Fold change vs veh, GTPBP10 / RFU, CNEP1R1 / Fold change vs veh, CNEP1R1 / RFU, BIVM-ERCC5 /// ERCC5 / Fold change vs veh, BIVM-ERCC5 /// ERCC5 / RFU, ILF3 / Fold change vs veh, ILF3 / RFU 11762660_at / Fold change /veh 11762660_at / RFU VCAN (11757783_s_at) / Fold change /veh VCAN (11757783_s_at) / RFU DDX43 (11728927_at) / Fold change /veh DDX43 (11728927_at) / RFU KRT8 (11758188_x_at) / Fold change /veh KRT8 (11758188_x_at) / RFU NKD1 (11759106_at) / Fold change /veh NKD1 (11759106_at) / RFU SRD5A1 (11742802_a_at) / Fold change /veh SRD5A1 (11742802_a_at) / RFU TPSAB1 /// TPSB2 (11721975_s_at) / Fold change /veh TPSAB1 /// TPSB2 (11721975_s_at) / RFU GSTM3 (11746129_a_at) / Fold change /veh GSTM3 (11746129_a_at) / RFU IL23R (11737362_x_at) / Fold change /veh IL23R (11737362_x_at) / RFU TMEM51 (11727254_a_at) / Fold change /veh TMEM51 (11727254_a_at) / RFU PIWIL2 (11732686_x_at) / Fold change /veh PIWIL2 (11732686_x_at) / RFU ORM1 (11744905_x_at) / Fold change /veh ORM1 (11744905_x_at) / RFU CCDC152 (11743942_at) / Fold change /veh CCDC152 (11743942_at) / RFU ECM1 (11717891_a_at) / Fold change /veh ECM1 (11717891_a_at) / RFU IL23R (11748794_a_at) / Fold change /veh IL23R (11748794_a_at) / RFU TNFAIP8L3 (11732012_x_at) / Fold change /veh TNFAIP8L3 (11732012_x_at) / RFU MBOAT4 (11741988_at) / Fold change /veh MBOAT4 (11741988_at) / RFU 11764193_at / Fold change /veh 11764193_at / RFU TMEM53 (11763286_at) / Fold change /veh TMEM53 (11763286_at) / RFU MAGEB2 (11727129_at) / Fold change /veh MAGEB2 (11727129_at) / RFU TMEM200A (11744735_a_at) / Fold change /veh TMEM200A (11744735_a_at) / RFU CCDC152 (11751479_a_at) / Fold change /veh CCDC152 (11751479_a_at) / RFU FAM211A (11726209_a_at) / Fold change /veh FAM211A (11726209_a_at) / RFU RGS16 (11746705_a_at) / Fold change /veh RGS16 (11746705_a_at) / RFU VCAN (11755009_s_at) / Fold change /veh VCAN (11755009_s_at) / RFU RHOB (11743442_s_at) / Fold change /veh RHOB (11743442_s_at) / RFU RGS16 (11720943_a_at) / Fold change /veh RGS16 (11720943_a_at) / RFU RGS16 (11720944_at) / Fold change /veh RGS16 (11720944_at) / RFU, VPS4B / Fold change vs veh, VPS4B / RFU, CREB1 / Fold change vs veh, CREB1 / RFU, DNAJC13 / Fold change vs veh, DNAJC13 / RFU, GNAQ / Fold change vs veh, GNAQ / RFU, CDK5R1 / Fold change vs veh, CDK5R1 / RFU, ZRANB3 / Fold change vs veh, ZRANB3 / RFU, CUL4A / Fold change vs veh, CUL4A / RFU, CCNY / Fold change vs veh, CCNY / RFU, UFL1 / Fold change vs veh, UFL1 / RFU, COG3 / Fold change vs veh, COG3 / RFU, DIAPH2 / Fold change vs veh, DIAPH2 / RFU, SKA2 / Fold change vs veh, SKA2 / RFU, AFF3 / Fold change vs veh, AFF3 / RFU, LMF1 / Fold change vs veh, LMF1 / RFU, IPO11 / Fold change vs veh, IPO11 / RFU, DFFB / Fold change vs veh, DFFB / RFU, FOXP1 / Fold change vs veh, FOXP1 / RFU, CARD8 / Fold change vs veh, CARD8 / RFU, STRN3 / Fold change vs veh, STRN3 / RFU, ADK / Fold change vs veh, ADK / RFU, RASSF2 / Fold change vs veh, RASSF2 / RFU, WIPF1 / Fold change vs veh, WIPF1 / RFU, LARP1B / Fold change vs veh, LARP1B / RFU, RASA1 / Fold change vs veh, RASA1 / RFU, RB1 / Fold change vs veh, RB1 / RFU, PPFIA1 / Fold change vs veh, PPFIA1 / RFU, MAT2A / Fold change vs veh, MAT2A / RFU, CCT5 / Fold change vs veh, CCT5 / RFU, WDR92 / Fold change vs veh, WDR92 / RFU, CUX1 / Fold change vs veh, CUX1 / RFU, TTC7A / Fold change vs veh, TTC7A / RFU, TMEM135 / Fold change vs veh, TMEM135 / RFU, DEPTOR / Fold change vs veh, DEPTOR / RFU, CPM / Fold change vs veh, CPM / RFU, DNAJB6 / Fold change vs veh, DNAJB6 / RFU, CACNA2D3 / Fold change vs veh, CACNA2D3 / RFU, DTX4 / Fold change vs veh, DTX4 / RFU, TFCP2 / Fold change vs veh, TFCP2 / RFU, GMCL1 /// GMCL1P1 / Fold change vs veh, GMCL1 /// GMCL1P1 / RFU, AEBP2 / Fold change vs veh, AEBP2 / RFU, SNHG1 /// SNORD22 /// SNORD25 /// SNORD26 /// SNORD27 /// SNORD28 /// SNORD29 /// SNORD31 / Fold change vs veh, SNHG1 /// SNORD22 /// SNORD25 /// SNORD26 /// SNORD27 /// SNORD28 /// SNORD29 /// SNORD31 / Fold change (Aza/veh), C12orf56 (ProbeSet 11735607_a_at) / Fold change (ACY-1035/veh), C12orf56 (ProbeSet 11735607_a_at) / Fold change (Aza/veh), FGFR1OP (ProbeSet 11751329_s_at) / Fold change (ACY-1035/veh), FGFR1OP (ProbeSet 11751329_s_at) / Fold change (Aza/veh), VPS36 (ProbeSet 11739960_a_at) / Fold change (ACY-1035/veh), VPS36 (ProbeSet 11739960_a_at) / RFU SYPL1 (11715823_x_at) / Fold change /veh SYPL1 (11715823_x_at) / RFU IGFBP7 (11715501_s_at) / Fold change /veh IGFBP7 (11715501_s_at) / RFU REEP3 (11722064_at) / Fold change /veh REEP3 (11722064_at) / RFU IGLL1 (11728026_x_at) / Fold change /veh IGLL1 (11728026_x_at): dose or concentration left out as unconfirmed
Settings: ProbeSet 11720269_a_at; LIST B

## Nc1ncn([C@@H]2O[C@H](CO)[C@@H](O)[C@H]2O)c(=O)n1 [azacitidine]
  Fold change vs veh, IBTK: 0.94
